Data taken from publication PMC3817062, “N-Alkylated Aminoacyl sulfamoyladenosines as Potential Inhibitors of Aminoacylation Reactions and Microcin C Analogues Containing D-Amino Acids” (PLoS ONE, 2013).
Non-standard residues stand in square brackets, D forms with d. Residues, ends and D or L forms follow the SMILES beside them. *: point of attachment. AspNHSO2(5'-O-Ado) = Nc1ncnc2c1ncn2[C@@H]1O[C@H](COS(=O)(=O)NC(=O)[C@H](CC(=O)O)N*)[C@@H](O)[C@H]1O; X1 = Nc1ncnc2c1ncn2[C@@H]1O[C@H](COS(=O)(=O)NC(=O)[C@@H](CC(=O)O)N*)[C@@H](O)[C@H]1O; For = O=C*

Columns and labels:
AlaRS [1] = target: T1, AlaRS (Escherichia coli, UniProt P00957); test: In vitro tRNA aminoacylation in S30 cell extract, AlaRS; format: biochemical, E. coli; conditions: 50 µM, wild-type cell extract, triplicate; Figure 3
T1 construct: endogenous in cells; host or cells: E. coli wild-type S30 cell extract
T1 sequence (P00957 whole entry): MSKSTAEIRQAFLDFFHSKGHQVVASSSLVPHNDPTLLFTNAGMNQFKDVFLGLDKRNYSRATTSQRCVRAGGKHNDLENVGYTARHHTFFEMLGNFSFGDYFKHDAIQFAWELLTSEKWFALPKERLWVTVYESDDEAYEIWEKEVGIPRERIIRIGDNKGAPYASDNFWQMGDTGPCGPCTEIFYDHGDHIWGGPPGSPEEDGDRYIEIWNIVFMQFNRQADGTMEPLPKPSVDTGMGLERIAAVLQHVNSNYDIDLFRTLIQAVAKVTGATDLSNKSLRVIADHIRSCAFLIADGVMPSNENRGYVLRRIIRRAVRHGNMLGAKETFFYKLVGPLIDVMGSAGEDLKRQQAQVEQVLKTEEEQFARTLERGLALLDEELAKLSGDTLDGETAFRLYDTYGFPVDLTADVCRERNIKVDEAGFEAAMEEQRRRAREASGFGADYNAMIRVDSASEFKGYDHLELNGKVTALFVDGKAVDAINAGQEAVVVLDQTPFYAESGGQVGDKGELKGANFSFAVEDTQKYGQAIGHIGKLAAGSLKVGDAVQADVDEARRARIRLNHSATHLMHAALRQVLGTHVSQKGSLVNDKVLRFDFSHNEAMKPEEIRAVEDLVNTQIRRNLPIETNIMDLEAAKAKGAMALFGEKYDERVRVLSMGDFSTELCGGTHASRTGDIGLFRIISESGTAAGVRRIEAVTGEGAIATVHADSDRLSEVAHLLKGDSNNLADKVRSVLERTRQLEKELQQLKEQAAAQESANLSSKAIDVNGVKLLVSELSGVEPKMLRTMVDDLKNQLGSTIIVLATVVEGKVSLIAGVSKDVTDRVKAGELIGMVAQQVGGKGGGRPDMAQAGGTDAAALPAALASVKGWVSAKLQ
Description: (§1) The growth inhibitory properties for all new compounds were determined by measuring the optical density reached by cultures of McC-sensitive E. coli in wells of microtiter plates in the presence of various concentrations of the respective inhibitors. As shown earlier, the intracellular target of McC analogs is determined by the C-terminal amino acid, which remains attached onto the sulfamoyladenosine following intracellular metabolism. To facilitate activity evaluation and the mechanism of action studies of newly synthesized compounds, an E. coli tester strain Ara-Yej (BW39758) was used, where the yejABEF operon is under control of the arabinose-inducible araBAD promoter. […] In addition to the Ara-Yej strain, E. coli lacking rim genes (and therefore hypersensitive to McC) was used as a tester strain. […] In in vitro aminoacylation experiments, compound 3 was tested for its potential to inhibit ProRS, GlyRS and AlaRS and compound 2 was tested for its ability to inhibit LeuRS in a wild-type cell extract. Established inhibitors of these enzymes are the respective 5’-O-[N-[L-aminoacyl]-sulfamoyl]adenosines: Pro-SA, Gly-SA, Ala-SA and Leu-SA [2-4]. […]
(§2) 1 μL of solution containing inhibitor, 3 μL of E. coli S30 extracts was added. […] Following the addition of scintillation liquid, the amount of radioactivity was determined in a scintillation counter.

McC-sensitive E. coli = test: Whole cell activity determination (OD600), all cells tested; format: cell-based; conditions: all cells tested (Ara-Yej strain, E. coli lacking rim genes); OD600 after 8 h, 37 °C, LB; data not shown
ProRS [2] = target: T2, ProRS (Escherichia coli, UniProt P16659); test: In vitro tRNA aminoacylation in S30 cell extract, ProRS; format: biochemical, E. coli; conditions: 50 µM, wild-type cell extract, triplicate; Figure 3
T2 construct: endogenous in cells; host or cells: E. coli wild-type S30 cell extract
T2 sequence (P16659 whole entry): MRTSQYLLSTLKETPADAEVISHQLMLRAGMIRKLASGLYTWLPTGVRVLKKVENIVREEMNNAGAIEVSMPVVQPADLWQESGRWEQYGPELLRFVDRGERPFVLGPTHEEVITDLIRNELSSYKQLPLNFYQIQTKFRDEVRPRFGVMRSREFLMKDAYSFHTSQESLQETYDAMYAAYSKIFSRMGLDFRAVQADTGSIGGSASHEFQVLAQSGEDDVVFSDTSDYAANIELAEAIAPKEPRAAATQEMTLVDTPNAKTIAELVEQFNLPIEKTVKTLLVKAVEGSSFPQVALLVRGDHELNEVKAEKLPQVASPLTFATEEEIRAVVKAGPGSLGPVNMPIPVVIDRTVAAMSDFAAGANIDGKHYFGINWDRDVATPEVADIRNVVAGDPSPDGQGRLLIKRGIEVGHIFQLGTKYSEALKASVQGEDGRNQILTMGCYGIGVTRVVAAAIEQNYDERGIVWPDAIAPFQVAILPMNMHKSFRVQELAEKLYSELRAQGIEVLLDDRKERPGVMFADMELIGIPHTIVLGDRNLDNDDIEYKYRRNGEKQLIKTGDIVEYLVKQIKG
Description: as §1, §2

GlyRS [3] = target: T3, GlyRS (Escherichia coli, UniProt P00960); test: In vitro tRNA aminoacylation in S30 cell extract, GlyRS; format: biochemical, E. coli; design: endogenous in cells; host or cells: E. coli wild-type S30 cell extract; conditions: 50 µM, wild-type cell extract, triplicate; Figure 3
T3 sequence (P00961 2-689): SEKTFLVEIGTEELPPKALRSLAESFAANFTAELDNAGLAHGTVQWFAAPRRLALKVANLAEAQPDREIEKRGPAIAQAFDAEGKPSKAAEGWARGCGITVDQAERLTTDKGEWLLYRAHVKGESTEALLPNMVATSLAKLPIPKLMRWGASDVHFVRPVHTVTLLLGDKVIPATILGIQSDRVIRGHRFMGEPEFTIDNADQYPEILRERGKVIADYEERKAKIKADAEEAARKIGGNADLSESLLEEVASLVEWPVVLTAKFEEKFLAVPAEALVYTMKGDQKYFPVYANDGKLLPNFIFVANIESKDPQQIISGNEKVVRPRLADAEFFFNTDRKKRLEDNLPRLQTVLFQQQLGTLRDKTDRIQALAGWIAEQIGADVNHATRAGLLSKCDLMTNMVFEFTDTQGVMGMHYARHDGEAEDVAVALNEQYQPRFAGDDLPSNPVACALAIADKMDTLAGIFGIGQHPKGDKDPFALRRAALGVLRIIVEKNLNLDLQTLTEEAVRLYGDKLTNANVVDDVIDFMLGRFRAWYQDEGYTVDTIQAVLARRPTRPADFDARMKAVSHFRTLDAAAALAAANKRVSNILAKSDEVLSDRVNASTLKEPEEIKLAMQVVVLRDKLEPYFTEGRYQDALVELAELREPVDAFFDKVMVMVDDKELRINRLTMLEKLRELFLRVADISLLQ
T3 sequence (P00960 whole entry): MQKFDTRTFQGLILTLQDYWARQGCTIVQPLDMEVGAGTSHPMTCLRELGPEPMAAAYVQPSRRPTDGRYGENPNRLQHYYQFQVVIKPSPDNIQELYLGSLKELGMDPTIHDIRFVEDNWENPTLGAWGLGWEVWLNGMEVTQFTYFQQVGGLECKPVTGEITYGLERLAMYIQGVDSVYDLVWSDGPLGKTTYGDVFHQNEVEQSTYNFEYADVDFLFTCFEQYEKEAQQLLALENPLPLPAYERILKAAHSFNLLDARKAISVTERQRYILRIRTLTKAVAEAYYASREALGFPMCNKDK
Description: as §1, §2

AlaRS [4] = target: T1, AlaRS; conditions: positive control, previously shown; cited from earlier work
Description: (§3) All experiments were performed in triplicate.

GlyRS [5] = target: T3, GlyRS; conditions: positive control, previously shown; cited from earlier work
[6] = test system: peptidases PepA, PepB and PepN; test: Metabolism (processing) of the peptide chain by peptidases, release of the active moiety; format: in vitro ADME; conditions: E. coli S30 cell extracts; concluded from aminoacylation inhibition experiments
Description: This is a somewhat expected result as it has frequently been shown that the introduction of (D)-amino acids can prevent the hydrolysis by peptidases.
Compounds 5-7 were especially designed to circumvent this problem; all three compounds contain L-amino acids at the sixth and seventh position, allowing endopeptidases to cleave between these two L-amino acids, resulting in release of the active moiety. […] Also the modification in compound 6, inspired by albomycin whereby pepN hydrolyzes the peptide bond between a serine and a modified amino acid carrying an acidic side chain [22], could not rescue the activity. […] Whether or not incorporation of (D)-amino acids in the transport peptide part interferes with uptake of the McC derivatives by the YejABEF transporter is less relevant here, as in vitro tests already show lack of activity. Additional reduced uptake of the analogues 4-7 however cannot be excluded.
Cells were grown in 50 mL LB-medium. After centrifuging at 3000 × g for 10 min. the supernatant was discarded and the pellet was resuspended in 40 mL buffer containing: Tris.HCl or Hepes.KOH (pH = 8.0) (20 mM), MgCl2 (10 mM), KCl (100 mM). […]
as §2

AspRS = target: T4, AspRS (Escherichia coli, UniProt P21889); test: In vitro tRNA aminoacylation in S30 cell extracts, AspRS; format: biochemical, E. coli; conditions: for inhibition of AspRS in vitro: aminoacylation in cell extracts, compound needs no metabolism
T4 construct: endogenous in cells; host or cells: S30 extracts of E. coli ΔrimL, ΔpepABN and Δdtd cells
T4 sequence (P21889 whole entry): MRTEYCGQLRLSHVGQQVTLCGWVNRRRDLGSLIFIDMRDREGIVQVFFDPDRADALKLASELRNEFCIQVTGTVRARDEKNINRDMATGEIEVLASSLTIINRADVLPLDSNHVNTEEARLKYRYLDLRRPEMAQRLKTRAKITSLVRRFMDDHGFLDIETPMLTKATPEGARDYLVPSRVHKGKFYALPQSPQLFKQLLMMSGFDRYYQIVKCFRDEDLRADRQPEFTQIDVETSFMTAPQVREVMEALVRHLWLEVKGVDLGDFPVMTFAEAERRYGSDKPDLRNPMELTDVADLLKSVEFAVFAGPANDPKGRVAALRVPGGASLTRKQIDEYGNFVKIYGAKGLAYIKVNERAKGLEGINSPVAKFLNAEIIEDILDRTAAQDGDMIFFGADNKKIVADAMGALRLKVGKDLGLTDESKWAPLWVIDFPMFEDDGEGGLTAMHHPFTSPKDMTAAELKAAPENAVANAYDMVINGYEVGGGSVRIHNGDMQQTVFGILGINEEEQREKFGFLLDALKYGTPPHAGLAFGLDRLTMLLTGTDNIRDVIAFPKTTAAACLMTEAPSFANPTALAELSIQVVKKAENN
Description: Figure 5 Aminoacylation experiments of the McC analogues containing (D)-amino acids at 50 µM. Upper panel: 30 min incubation with a cell extract deficient of RimL. Middle panel: 30 min incubation with a cell extract deficient of PepA, PepB and PepN. Lower panel: Comparison of two McC analogues targeting AspRS, compound 8 having a C-terminal D-configuration, compound 1f having a C-terminal (L)-configuration. Incubation was done with two different cell extracts, lacking either DTD or RimL.
To investigate whether compound 8 would be more resistant than compound 1f to MccF-catalyzed hydrolysis and/or MccE/RimL-catalyzed acetylation, and to investigate a possible role of DTD, a time-course of tRNA^Asp aminoacylation inhibition was followed in two different cell extracts, one prepared from cells lacking Rim proteins, and another from cells lacking DTD. From Figure 5 (lower panel) it can be observed that at time point zero, i.e., immediately after addition of the compounds, there was no inhibition since the compounds were still unmetabolized. […] Upon further incubation, the reaction recovered from inhibition for both compounds. For compound 8 this effect was more pronounced than for compound 1f, especially in cell extracts prepared from cells lacking DTD proteins.
To assess the degree of inhibition of the aminoacylation reaction, in vitro tests were performed using the relevant S30 cell extracts.
Cells were grown in 50 mL LB-medium. After centrifuging at 3000 × g for 10 min. the supernatant was discarded and the pellet was resuspended in 40 mL buffer containing: Tris.HCl or Hepes.KOH (pH = 8.0) (20 mM), MgCl2 (10 mM), KCl (100 mM). The cell-suspension was centrifuged again at 4800 rpm. This procedure was repeated 2 times. The pellet was resuspended in 1 mL of the following buffer Tris.HCl or Hepes.KOH (pH = 8.0) (20 mM), MgCl2 (10 mM), KCl (100 mM), DTT (1 mM) and kept at 0 °C. Subsequently, the cells were sonicated for 10 sec. and left at 0 °C for 10 min. This procedure was repeated for 5-8 times. The lysate was centrifuged at 15000 g for 30 min at +4 °C.
1 μL of solution containing inhibitor, 3 μL of E. coli S30 extracts was added. Next, 16 μL of the following aminoacylation mixture was added: Tris.HCl (30mM, pH 8.0), DTT (1 mM), bulk of E. coli tRNA (5 g/l), ATP (3 mM), KCl (30 mM), MgCl2 (8 mM), and the specified, radio labeled amino acid (40 μM). The reaction products were precipitated in cold 10% TCA on Whatman 3MM papers, 5 min. after the aminoacylation mixture was added. The aminoacylation reaction was carried out at room temperature. Depending on whether or not processing was needed, variable time intervals were included between the addition of the cell-extract and the addition of the aminoacylation mixture. After thorough washing with cold 10% TCA, the papers were washed twice with acetone and dried on a heating plate. Following the addition of scintillation liquid, the amount of radioactivity was determined in a scintillation counter.

ProRS [7] = target: T2, ProRS; conditions: positive control, previously shown; cited from earlier work
Description: as §3

LeuRS = target: T5, LeuRS (Escherichia coli, UniProt P07813); test: In vitro tRNA aminoacylation in S30 cell extract, LeuRS; format: biochemical, E. coli; conditions: 50 µM, wild-type cell extract, triplicate; Figure 3
T5 construct: endogenous in cells; host or cells: E. coli wild-type S30 cell extract
T5 sequence (P07813 whole entry): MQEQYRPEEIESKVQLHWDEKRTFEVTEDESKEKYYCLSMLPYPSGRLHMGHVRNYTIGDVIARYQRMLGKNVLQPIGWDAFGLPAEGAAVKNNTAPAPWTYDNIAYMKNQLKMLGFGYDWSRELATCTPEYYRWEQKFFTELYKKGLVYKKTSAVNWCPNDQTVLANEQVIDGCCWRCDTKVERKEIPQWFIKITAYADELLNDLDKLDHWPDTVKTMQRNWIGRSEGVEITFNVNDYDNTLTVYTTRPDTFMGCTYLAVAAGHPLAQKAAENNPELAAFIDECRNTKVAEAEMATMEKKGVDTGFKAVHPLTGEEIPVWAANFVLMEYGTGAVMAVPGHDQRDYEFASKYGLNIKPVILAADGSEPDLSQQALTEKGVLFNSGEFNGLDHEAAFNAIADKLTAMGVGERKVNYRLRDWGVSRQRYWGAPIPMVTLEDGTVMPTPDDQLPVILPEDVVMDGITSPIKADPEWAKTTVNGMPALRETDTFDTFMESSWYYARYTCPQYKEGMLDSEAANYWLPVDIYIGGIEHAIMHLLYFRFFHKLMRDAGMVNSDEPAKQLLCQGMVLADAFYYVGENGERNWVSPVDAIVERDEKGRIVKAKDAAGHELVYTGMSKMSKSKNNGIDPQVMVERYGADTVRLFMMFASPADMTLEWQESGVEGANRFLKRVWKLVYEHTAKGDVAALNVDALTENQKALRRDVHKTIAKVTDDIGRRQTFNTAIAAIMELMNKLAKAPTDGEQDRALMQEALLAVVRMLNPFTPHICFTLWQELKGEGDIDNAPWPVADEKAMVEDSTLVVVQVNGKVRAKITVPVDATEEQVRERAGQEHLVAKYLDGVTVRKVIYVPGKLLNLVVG
Description: as §1, §2

[8] = time course, extract from cells lacking DTD, at 15 min

SMILES: CNCC(=O)NS(=O)(=O)OC[C@H]1O[C@@H](n2cnc3c(N)ncnc32)[C@H](O)[C@@H]1O [compound 3, sarcosyl-sulfamoyladenosine]
- inhibition of AlaRS aminoacylation (AlaRS [1]): could not be targeted
- whole-cell activity (growth inhibition) (McC-sensitive E. coli): inactive
- inhibition of ProRS aminoacylation (ProRS [2]): does not show any major inhibitory binding affinity
- inhibition of GlyRS aminoacylation (GlyRS [3]): could not be targeted

SMILES: C[C@H](N)C(=O)NS(=O)(=O)OC[C@H]1O[C@@H](n2cnc3c(N)ncnc32)[C@H](O)[C@@H]1O [Ala-SA]
- inhibition of AlaRS (AlaRS [4]): potent inhibitors

SMILES: NCC(=O)NS(=O)(=O)OC[C@H]1O[C@@H](n2cnc3c(N)ncnc32)[C@H](O)[C@@H]1O [Gly-SA]
- inhibition of GlyRS (GlyRS [5]): potent inhibitors

SMILES: CSCC[C@H](NC=O)C(=O)N[C@@H](CCCNC(=N)N)C(=O)N[C@H](C(=O)NCC(=O)N[C@@H](CC(N)=O)C(=O)N[C@@H](C)C(=O)N[C@H](CC(=O)O)C(=O)NS(=O)(=O)OC[C@H]1O[C@@H](n2cnc3c(N)ncnc32)[C@H](O)[C@@H]1O)[C@@H](C)O [compound 8] (For-MRTGNA-X1)
- metabolism by the peptidases (release of the active moiety) [6]: can metabolize
- reduction of esterification of Asp-C14 to tRNAAsp (AspRS; time course, extract from cells lacking DTD, after 60 min): 44%
- incorporation of Asp-C14 into tRNAAsp (AspRS; [8]): 11%
- inhibition of tRNAAsp aminoacylation (AspRS; [8]): 89%

SMILES: Nc1ncnc2c1ncn2[C@@H]1O[C@H](COS(=O)(=O)NC(=O)[C@H](N)CC(=O)O)[C@@H](O)[C@H]1O [compound 9, (D)-aspartyl-sulfamoyladenosine]
- inhibition of AspRS in vitro (AspRS): can also inhibit AspRS
- inhibition of AspRS in vitro (AspRS; listed as (D)-D-SA): equally inhibitory

SMILES: Nc1ncnc2c1ncn2[C@@H]1O[C@H](COS(=O)(=O)NC(=O)[C@@H](N)CC(=O)O)[C@@H](O)[C@H]1O [compound 10, (L)-aspartyl-sulfamoyladenosine, reference compound]
- inhibition of AspRS in vitro (AspRS): equally inhibitory

SMILES: Nc1ncnc2c1ncn2[C@@H]1O[C@H](COS(=O)(=O)NC(=O)[C@@H]2CCCN2)[C@@H](O)[C@H]1O [Pro-SA, 5’-O-[N-[(L)-prolyl]-sulfamoyl]adenosine]
- inhibition of ProRS (ProRS [7]): potent inhibitors

SMILES: CSCC[C@H](NC=O)C(=O)N[C@H](CCCNC(=N)N)C(=O)N[C@@H](C(=O)NCC(=O)N[C@H](CC(N)=O)C(=O)N[C@H](C)C(=O)N[C@@H](CC(=O)O)C(=O)NS(=O)(=O)OC[C@H]1O[C@@H](n2cnc3c(N)ncnc32)[C@H](O)[C@@H]1O)[C@H](C)O [compound 4] (For-M[dR][dT]G[dN][dA]-{AspNHSO2(5'-O-Ado)})
- metabolism by the peptidases (release of the active moiety) [6]: not capable of hydrolyzing

SMILES: CN[C@@H](CC(C)C)C(=O)NS(=O)(=O)OC[C@H]1O[C@@H](n2cnc3c(N)ncnc32)[C@H](O)[C@@H]1O [compound 2, 5’-O-[N-[(L)-N-methyl-leucyl]-sulfamoyl]adenosine]
- whole-cell activity (growth inhibition) (McC-sensitive E. coli): inactive
- inhibition of LeuRS aminoacylation (LeuRS): inactive
